Experiment [1] deals with T1, LK35.2-hPD-L1 cells / PE-labeled PD-1-Ig (Homo sapiens, UniProt Q9NZQ7).
T1 construct: expressed in transfected cells; host or cells: LK35.2 mouse B cell line
The experiment can be described thus: LK35.2-hPD-L1 cell binding high-content screening assay. It counts as cell-based. The following applies: cluster symbol, read-out: CBA IC50 cluster. An outline of the steps:
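Fluorescent PD-1-Ig binding to PD-L1-expressing LK35.2 cells, imaged after washing. Conditions: 1 nM PE-PD-1-Ig, 37 °C, 1 h, RPMI with 10% fetal calf serum.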

In the next experiment the target is T2, Human PD-L1/PD-1 (Homo sapiens, UniProt Q9NZQ7).
T2 construct: made in house; host or cells: HEK293T
T2 sequence (Q9NZQ7 with tags, fused parts or gaps): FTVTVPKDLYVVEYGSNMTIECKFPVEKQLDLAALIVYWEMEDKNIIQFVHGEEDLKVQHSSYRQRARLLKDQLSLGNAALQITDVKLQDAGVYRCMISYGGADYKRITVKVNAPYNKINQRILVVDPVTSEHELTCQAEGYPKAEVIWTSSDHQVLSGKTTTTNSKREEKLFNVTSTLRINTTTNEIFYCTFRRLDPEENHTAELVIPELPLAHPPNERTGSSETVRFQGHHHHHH
The experiment can be described thus: HTRF PD-1-Ig/PD-L1-His binding assay (human PD-L1). Conditions: cluster symbol; read-out: HTRF IC50 cluster. An outline of the steps:
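HTRF read-out: Eu cryptate anti-Ig mAb 1 nM final, APC anti-His mAb 20 nM final, added over the binding reaction. Proteins were PD-1-Ig and PD-L1-His ectodomain fusions. Buffer was dPBS, 0.1% BSA, 0.05% Tween-20.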

The mark [2] stands for this setting: cell binding assay, cell line not given.
The mark [3] stands for this setting: cell line of CBA not given (LK35.2-hPD-L1 or 293T-hPD-L1).

The IC50 is the midpoint of a concentration-inhibition curve.

Like-named read-outs stand apart in the source and are kept apart here. Starred links: 1 amine or outer side, 2 acyl side, 3 side chain; linkers in the order of their positions; H or OH if unused. Positions of bridges follow the written chain, without caps; N, C: chain ends. Non-standard residues stand in square brackets, D forms with d. Residues, ends and D or L forms follow the SMILES beside them. ξ: configuration not given here. X6 = O=C([C@H](Cc1c(-c2ccc(F)cc2)[nH]c2ccccc12)N[*:1])[*:2]; Phe(4-CF3) = N[C@@H](Cc1ccc(C(F)(F)F)cc1)C(=O)O; Pro(trans-4-F) = O=C(O)[C@@H]1C[C@@H](F)CN1; Phe(4-Cl) = N[C@@H](Cc1ccc(Cl)cc1)C(=O)O; Bta = N[C@@H](Cc1csc2ccccc12)C(=O)O; Hyp = O=C(O)[C@@H]1C[C@@H](O)CN1; NMeF = CN[C@@H](Cc1ccccc1)C(=O)O; Chg = N[C@H](C(=O)O)C1CCCCC1; NMeNle = CCCC[C@H](NC)C(=O)O; NMeM = CN[C@@H](CCSC)C(=O)O; ξR = N=C(N)NCCCC(N)C(=O)O; NMeA = CN[C@@H](C)C(=O)O; Dap = NC[C@H](N)C(=O)O; ξC = NC(CS)C(=O)O; Sar = CNCC(=O)O Bounds are passed on as bounds.

T1 sequence (Q9NZQ7 19-290): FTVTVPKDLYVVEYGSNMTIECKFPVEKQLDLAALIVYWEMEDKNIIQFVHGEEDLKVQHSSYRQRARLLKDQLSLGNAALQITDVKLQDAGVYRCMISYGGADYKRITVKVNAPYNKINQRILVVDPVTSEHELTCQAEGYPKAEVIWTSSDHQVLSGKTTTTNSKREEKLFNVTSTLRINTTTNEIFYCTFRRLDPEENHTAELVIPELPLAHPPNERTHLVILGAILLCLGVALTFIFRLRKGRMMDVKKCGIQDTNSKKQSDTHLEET

For `CCCC[C@H]1C(=O)N(C)[C@@H](CCCC)C(=O)N[C@@H](CCCNC(=N)N)C(=O)N[C@H](C(=O)NCC(N)=O)CSCC(=O)N[C@@H](Cc2ccc(C(F)(F)F)cc2)C(=O)N(C)[C@@H](C)C(=O)N[C@@H](CC(N)=O)C(=O)N2CCC[C@H]2C(=O)N[C@@H](CN)C(=O)N[C@@H](CC(C)C)C(=O)N2C[C@H](O)C[C@H]2C(=O)N[C@@H](Cc2c[nH]c3ccccc23)C(=O)N[C@@H](CO)C(=O)N[C@@H](Cc2c[nH]c3ccccc23)C(=O)N1C` [Example 7030] ({CH2CO}-[Phe(4-CF3)][NMeA]NP[Dap]L[Hyp]WSW[NMeNle][NMeNle]RCG-NH2; thioether N-14), the IC50 in experiment [1] (setting [2]) is 4.78 to 72.9 nM; on Human PD-L1/PD-1, 0.385 to 6.74 nM.

Regarding `CCCC[C@H]1C(=O)N(C)CC(=O)N[C@@H](CC(=O)O)C(=O)N[C@@H](C2CCCCC2)C(=O)N(C)[C@@H](Cc2ccccc2)C(=O)N[C@@H](Cc2ccc(O)cc2)C(=O)N(C)CC(=O)N[C@@H](Cc2c[nH]c3ccccc23)C(=O)N[C@@H](Cc2ccc(O)cc2)C(=O)N[C@@H](CC(C)C)C(=O)N[C@H](C(=O)NCC(N)=O)CSCC(=O)N[C@@H](Cc2ccccc2)C(=O)N(C)[C@@H](Cc2ccccc2)C(=O)N1C` [Example 3158] ({CH2CO}-F[NMeF][NMeNle][Sar]D[Chg][NMeF]Y[Sar]WYLCG-NH2; thioether N-13), the results for the IC50 (in experiment [1] (setting [3]); on Human PD-L1/PD-1) were 4.78 to 72.9 nM and more than 30.5 nM, respectively.

`CCCC[C@H]1C(=O)N(C)[C@@H](CCSC)C(=O)N[C@@H](CCCNC(=N)N)C(=O)NC(C(=O)NCC(N)=O)CSCC(=O)N[C@@H](Cc2ccc(O)cc2)C(=O)N(C)[C@@H](C)C(=O)N[C@@H](CC(N)=O)C(=O)N2CCC[C@H]2C(=O)N[C@@H](CN)C(=O)N[C@@H](CC(C)C)C(=O)N2CCC[C@H]2C(=O)N[C@@H](Cc2c[nH]c3ccccc23)C(=O)N[C@@H](CO)C(=O)N[C@@H](Cc2c[nH]c3ccccc23)C(=O)N1C` (stereo partly shown) [Example 9081] ({CH2CO}-Y[NMeA]NP[Dap]LPWSW[NMeNle][NMeM]R[ξC]G-NH2; thioether N-14): the IC50 in experiment [1] (setting [2]) was in the range of 0.158 to 4.71 nM; on Human PD-L1/PD-1 it was 0.385 to 6.74 nM.

Turning to `CCCC[C@H]1C(=O)N(C)[C@@H](C)C(=O)N[C@@H](CCCNC(=N)N)C(=O)NC(C(=O)NCC(N)=O)CSCC(=O)N[C@@H](Cc2ccc(O)cc2)C(=O)N(C)[C@@H](C)C(=O)N[C@@H](CC(N)=O)C(=O)N2CCC[C@H]2C(=O)N[C@@H](CO)C(=O)N[C@@H](CC(C)C)C(=O)N2CCC[C@H]2C(=O)N[C@@H](Cc2c[nH]c3ccccc23)C(=O)N[C@@H](CO)C(=O)N[C@@H](Cc2csc3ccccc23)C(=O)N1C` (stereo partly shown) [Example 9111] ({CH2CO}-Y[NMeA]NPSLPWS[Bta][NMeNle][NMeA]R[ξC]G-NH2; thioether N-14), the results for the half-maximal inhibitory concentration (IC50) (in experiment [1] (setting [2]); on Human PD-L1/PD-1) were 4.78 to 72.9 nM and 0.385 to 6.74 nM, respectively.

As to `CCCC[C@H]1C(=O)N(C)[C@@H](CCCC)C(=O)N[C@@H](CCCNC(=N)N)C(=O)N[C@H](C(=O)NCC(N)=O)CSCC(=O)N[C@@H](Cc2ccccc2)C(=O)N(C)[C@@H](C)C(=O)N[C@@H](CC(N)=O)C(=O)N2CCC[C@H]2C(=O)N[C@@H](Cc2cnc[nH]2)C(=O)N[C@@H](CC(C)C)C(=O)N2C[C@H](F)C[C@H]2C(=O)N[C@@H](Cc2c[nH]c3ccccc23)C(=O)N[C@@H](CO)C(=O)N[C@@H](Cc2c[nH]c3ccccc23)C(=O)N1C` [Example 5033] ({CH2CO}-F[NMeA]NPHL[Pro(trans-4-F)]WSW[NMeNle][NMeNle]RCG-NH2; thioether N-14), the IC50 is 4.78 to 72.9 nM in experiment [1] (setting [2]) and 6.76 to 30.3 nM at Human PD-L1/PD-1.

Turning to `CC(C)C[C@@H]1NC(=O)[C@H](Cc2ccc(O)cc2)NC(=O)[C@H](Cc2c[nH]c3ccccc23)NC(=O)CN(C)C(=O)[C@H](Cc2ccc(O)cc2)NC(=O)[C@H](Cc2ccccc2)N(C)C(=O)[C@H](C(C)C)NC(=O)[C@H](CC(=O)O)NC(=O)CN(C)C(=O)[C@H](Cc2ccc(O)cc2)N(C)C(=O)[C@H](Cc2ccccc2)N(C)C(=O)[C@H](Cc2ccccc2)NC(=O)CSC[C@@H](C(=O)NCC(N)=O)NC1=O` [Example 3060-B] (HELM PEPTIDE1{[O=C(C[*:3])[*:2]].F.[meF].[meY].[Sar].D.V.[meF].Y.[Sar].W.Y.L.C.G.[am]}$PEPTIDE1,PEPTIDE1,1:R3-14:R3$$$V2.0), the IC50 was more than 74.3 nM in experiment [1] (setting [3]) and more than 30.5 nM at Human PD-L1/PD-1.

As to `CCCC[C@H]1C(=O)N(C)[C@@H](CCCC)C(=O)NC(CCCNC(=N)N)C(=O)N[C@H](C(=O)NCC(N)=O)CSCC(=O)N[C@@H](Cc2ccc(O)cc2)C(=O)N(C)[C@@H](C)C(=O)N[C@@H](CC(N)=O)C(=O)N2CCC[C@H]2C(=O)N[C@@H](CN)C(=O)N[C@@H](CC(C)C)C(=O)N2C[C@H](O)C[C@H]2C(=O)N[C@@H](Cc2c[nH]c3ccccc23)C(=O)N[C@@H](CO)C(=O)N[C@@H](Cc2c(-c3ccc(F)cc3)[nH]c3ccccc23)C(=O)N1C` (stereo partly shown) [Example 7002] ({CH2CO}-Y[NMeA]NP[Dap]L[Hyp]WS[X6][NMeNle][NMeNle][ξR]CG-NH2; thioether N-14), the values for the IC50 (in experiment [1] (setting [2]); at Human PD-L1/PD-1) were 0.158 to 4.71 nM and 0.385 to 6.74 nM, respectively.

`CCCC[C@H]1C(=O)N(C)CC(=O)N[C@@H](CC(=O)O)C(=O)N[C@@H](C(C)C)C(=O)N(C)[C@@H](Cc2ccccc2)C(=O)N[C@@H](Cc2ccc(O)cc2)C(=O)N(C)CC(=O)N[C@@H](Cc2c[nH]c3ccccc23)C(=O)N[C@@H](Cc2ccc(O)cc2)C(=O)N[C@@H](CN)C(=O)N[C@H](C(=O)NCC(N)=O)CSCC(=O)N[C@@H](Cc2ccccc2)C(=O)N(C)[C@@H](Cc2ccccc2)C(=O)N1C` [Example 3161] ({CH2CO}-F[NMeF][NMeNle][Sar]DV[NMeF]Y[Sar]WY[Dap]CG-NH2; thioether N-13): the IC50 in experiment [1] (setting [3]) is 4.78 to 72.9 nM; on Human PD-L1/PD-1, 6.76 to 30.3 nM.

`CCCC[C@H]1C(=O)N(C)[C@@H](CCCC)C(=O)N[C@@H](CCN)C(=O)N[C@H](C(=O)NCC(N)=O)CSCC(=O)N[C@@H](Cc2ccc(O)cc2)C(=O)N(C)[C@@H](C)C(=O)N[C@@H](CC(N)=O)C(=O)N2CCC[C@H]2C(=O)N[C@@H](Cc2cnc[nH]2)C(=O)N[C@@H](CC(C)C)C(=O)N2C[C@H](O)C[C@H]2C(=O)N[C@@H](Cc2c[nH]c3ccccc23)C(=O)N[C@@H](CO)C(=O)N[C@@H](Cc2c[nH]c3ccccc23)C(=O)N1C` [Example 1131]: the IC50 in experiment [1] (setting [3]) lay within 0.158 to 4.71 nM; at Human PD-L1/PD-1, 0.385 to 6.74 nM.

Regarding `CCCC[C@H]1C(=O)N(C)[C@@H](CCCC)C(=O)N[C@@H](CCCNC(=N)N)C(=O)N[C@H](C(=O)NCC(N)=O)CSCC(=O)N[C@@H](Cc2ccc(O)cc2)C(=O)N(C)[C@@H](C)C(=O)N[C@@H](CCCCN)C(=O)N2CCC[C@H]2C(=O)N[C@@H](Cc2c[nH]cn2)C(=O)N[C@@H](CCC(=O)O)C(=O)N2C[C@H](O)C[C@H]2C(=O)N[C@@H](Cc2c[nH]c3ccccc23)C(=O)N[C@@H](CO)C(=O)N[C@@H](Cc2c[nH]c3ccccc23)C(=O)N1C` [Example 5124] ({CH2CO}-Y[NMeA]KPHE[Hyp]WSW[NMeNle][NMeNle]RCG-NH2; thioether N-14), the IC50 lay in the range of 0.158 to 4.71 nM in experiment [1] (setting [2]) and 0.385 to 6.74 nM at Human PD-L1/PD-1.

For `CCCC[C@H]1C(=O)N(C)CC(=O)N[C@@H](CC(=O)O)C(=O)N[C@@H](C(C)C)C(=O)N(C)[C@@H](Cc2ccccc2)C(=O)N[C@@H](Cc2ccc(O)cc2)C(=O)N(C)CC(=O)N[C@@H](Cc2c[nH]c3ccccc23)C(=O)N[C@@H](Cc2ccc(O)cc2)C(=O)N[C@@H](CC(C)C)C(=O)N[C@H](C(=O)NCC(N)=O)CSCC(=O)N[C@@H](Cc2ccc(Cl)cc2)C(=O)N(C)[C@@H](Cc2ccccc2)C(=O)N1C` [Example 3067] ({CH2CO}-[Phe(4-Cl)][NMeF][NMeNle][Sar]DV[NMeF]Y[Sar]WYLCG-NH2; thioether N-13), the IC50 in experiment [1] (setting [3]) was 0.158 to 4.71 nM; at Human PD-L1/PD-1, 0.385 to 6.74 nM.
